The first assay addresses BRD4 (Homo sapiens, UniProt O60885). As to the kind of experiment: Time resolved fluorescence resonance energy transfer (TR-FRET) binding assay, bromodomain BRD4. As to conditions: FRET BRD4 IC50 (nM), one of the FRET assays described.
`[2H]C([2H])([2H])c1nnn(C)c1-c1cnc2c3ccc(N4C5CCCC4CC5)nc3n([C@H](c3ccccc3)C3CCOCC3)c2c1` [Example 184, 11-{8-Azabicyclo[3.2.1]octan-8-yl}-5-[4-(^2H3)methyl-1-methyl-1H-1,2,3-triazol-5-yl]-8-[(S)-oxan-4-yl(phenyl)methyl]-3,8,10-triazatricyclo[7.4.0.0^2,^7]trideca-1(9),2(7),3,5,10,12-hexaene] came in with an IC50 of under 10 nM.

Still in this assay, the particulars now being: one of the FRET assays described; read-out: FRET BRD4 IC50.
Take `CCOP(=O)(O)CCNc1ccc2c3ncc(-c4c(C)nnn4C)cc3n([C@H](c3ccccc3)C3CCOCC3)c2n1` [Example 220, (2-{[5-(Dimethyl-1H-1,2,3-triazol-5-yl)-8-[(S)-oxan-4-yl(phenyl)methyl]-3,8,10-triazatricyclo[7.4.0.0^2,^7]trideca-1(9),2(7),3,5,10,12-hexaen-11-yl]amino}ethyl)(ethoxy)phosphinic acid]: the IC50 was under 1 nM. Still for that read-out and setting: the value for `[2H]C([2H])([2H])C(C)(O)c1ccc2c3ncc(-c4c(C)nnn4C)cc3n([C@H](c3ccccc3)C3CCOCC3)c2n1` (stereo partly drawn) [Example 177, 2-[5-(Dimethyl-1H-1,2,3-triazol-5-yl)-8-[(S)-oxan-4-yl(phenyl)methyl]-3,8,10-triazatricyclo[7.4.0.0^2,^7]trideca-1(9),2(7),3,5,10,12-hexaen-11-yl](1,1,1-^2H3)propan-2-ol] was under 1 nM. Same read-out and setting: the value for `[2H]C([2H])([2H])c1nnn(C)c1-c1cnc2c3ccc(C(C)=O)nc3n([C@H](c3ccccc3)C3CCOCC3)c2c1` [Example 202, 1-{5-[4-(^2H3)Methyl-1-methyl-1H-1,2,3-triazol-5-yl]-8-[(S)-oxan-4-yl(phenyl)methyl]-3,8,10-triazatricyclo[7.4.0.0^2,^7]trideca-1(9),2(7),3,5,10,12-hexaen-11-yl}ethan-1-one] was under 10 nM; that for `Cc1nnn(C)c1-c1cnc2c3ccc(S(C)(=O)=O)nc3n([C@H](c3ccccc3F)C3CCOCC3)c2c1` [Example 221, 5-(Dimethyl-1H-1,2,3-triazol-5-yl)-8-[(S)-(2-fluorophenyl)(oxan-4-yl)methyl]-11-methanesulfonyl-3,8,10-triazatricyclo[7.4.0.0^2,^7]trideca-1(13),2(7),3,5,9,11-hexaene] was under 10 nM. For the compound `COc1ccc(CNc2ccc3c4ncc(-c5c(C)nnn5C)cc4n([C@H](c4ccccc4)C4CCOCC4)c3n2)c(OC)c1` [Example 187, N-[(2,4-Dimethoxyphenyl)methyl]-5-(dimethyl-1H-1,2,3-triazol-5-yl)-8-[(S)-oxan-4-yl(phenyl)methyl]-3,8,10-triazatricyclo[7.4.0.0^2,^7]trideca-1(9),2(7),3,5,10,12-hexaen-11-amine], the IC50 was under 10 nM. The same measure, in the same setting: the same measure for `[2H]C([2H])([2H])c1nnn(C)c1-c1cnc2c3c(C(C)=O)cncc3n([C@H](c3ccccc3)C3CCOCC3)c2c1` [Example 297, 1-{5-[4-(^2H3)Methyl-1-methyl-1H-1,2,3-triazol-5-yl]-8-[(S)-oxan-4-yl(phenyl)methyl]-3,8,11-triazatricyclo[7.4.0.0^2,^7]trideca-1(9),2(7),3,5,10,12-hexaen-13-yl}ethan-1-one]: under 10 nM. The same measure, in the same setting: the value for `[2H]C([2H])([2H])c1nnn(C)c1-c1cnc2c3c(OC(C)C)ncc(S(C)(=O)=O)c3n(C(c3ncccc3F)C3CCOCC3)c2c1` (stereo not drawn) [Example 71, 8-[(3-Fluoropyridin-2-yl)(oxan-4-yl)methyl]-10-methanesulfonyl-5-[4-(^2H3)methyl-1-methyl-1H-1,2,3-triazol-5-yl]-13-(propan-2-yloxy)-3,8,12-triazatricyclo[7.4.0.0^2,^7]trideca-1(13),2(7),3,5,9,11-hexaene] was under 1500 nM; that for “2-{13-Methoxy-5-[4-(^2H3)methyl-1-methyl-1H-1,2,3-triazol-5-yl]-8-[(S)-oxan-4-yl(phenyl)methyl]-3,8,12-triazatricyclo[7.4.0.0^2,^7]trideca-1(13),2(7),3,5,9,11-hexaen-11-yl}propan-2-ol [Example 344]” was under 10 nM; that for `CCOc1ncc(S(C)(=O)=O)c2c1c1ncc(-c3c(C)nnn3C)cc1n2[C@H](c1ccccc1)C1CCOCC1` [Example 53, 5-(Dimethyl-1H-1,2,3-triazol-5-yl)-13-ethoxy-10-methanesulfonyl-8-[(S)-oxan-4-yl(phenyl)methyl]-3,8,12-triazatricyclo[7.4.0.0^2,^7]trideca-1(13),2(7),3,5,9,11-hexaene] was under 1 nM. Same read-out and setting: the value for `[2H]C([2H])([2H])c1onc(C)c1-c1cnc2c3c(OC)ncc(S(=O)(=O)C([2H])([2H])[2H])c3n(C(c3ncccc3F)C3CCOCC3)c2c1` (stereo not drawn) [Example 66, 8-[(3-Fluoropyridin-2-yl)(oxan-4-yl)methyl]-10-(^2H3)methanesulfonyl-13-methoxy-5-[5-(^2H3)methyl-3-methyl-1,2-oxazol-4-yl]-3,8,12-triazatricyclo[7.4.0.0^2,^7]trideca-1(13),2(7),3,5,9,11-hexaene] was under 10 nM.

Turning to `Cc1nnn(C)c1-c1cnc2c3ccc(C(C)(C)O)nc3n([C@H](c3ccccc3)C3CCOCC3)c2c1` [Example 174, 2-[5-(Dimethyl-1H-1,2,3-triazol-5-yl)-8-[(S)-oxan-4-yl(phenyl)methyl]-3,8,10-triazatricyclo[7.4.0.0^2,^7]trideca-1(9),2(7),3,5,10,12-hexaen-11-yl]propan-2-ol], the IC50 is under 1 nM. Turning to `Cc1nnn(C)c1-c1cnc2c3cnc(Cl)cc3n([C@H](c3ccc(F)cc3)C3CCOCC3)c2c1` [Example 322], the IC50 was under 10 nM. Still for that read-out and setting: the same measure for `[2H]C([2H])([2H])c1nnn(C)c1-c1cnc2c3cnc(OC)cc3n([C@H](c3ccccc3)C3CCOCC3)c2c1` [Example 287, 11-Methoxy-5-[4-(^2H3)methyl-1-methyl-1H-1,2,3-triazol-5-yl]-8-[(S)-oxan-4-yl(phenyl)methyl]-3,8,12-triazatricyclo[7.4.0.0^2,^7]trideca-1(9),2(7),3,5,10,12-hexaene]: under 1 nM; for `[2H]C([2H])([2H])c1nnn(C)c1-c1cnc2c3c(OC(C)C)ncc(S(C)(=O)=O)c3n([C@H](c3ccccc3F)C3CCOCC3)c2c1` [Example 80, 8-[(S)-(2-Fluorophenyl)(oxan-4-yl)methyl]-10-methanesulfonyl-5-[4-(^2H3)methyl-1-methyl-1H-1,2,3-triazol-5-yl]-13-(propan-2-yloxy)-3,8,12-triazatricyclo[7.4.0.0^2,^7]trideca-1(13),2(7),3,5,9,11-hexaene]: under 1 nM; for `Cc1nnn(C)c1-c1cnc2c3ccc(NC(=O)C4CC4)nc3n([C@H](c3ccccc3F)C3CCOCC3)c2c1` [Example 276, N-[5-(Dimethyl-1H-1,2,3-triazol-5-yl)-8-[(S)-(2-fluorophenyl)(oxan-4-yl)methyl]-3,8,10-triazatricyclo[7.4.0.0^2,^7]trideca-1(13),2(7),3,5,9,11-hexaen-11-yl]cyclopropanecarboxamide]: under 10 nM. With `[2H]C([2H])([2H])c1onc(C)c1-c1cnc2c3c(OC)ncc(S(C)(=O)=O)c3n([C@H](c3ccccc3)C3CCOCC3)c2c1` [Example 60, 10-Methanesulfonyl-13-methoxy-5-[5-(^2H3)methyl-3-methyl-1,2-oxazol-4-yl]-8-[(S)-oxan-4-yl(phenyl)methyl]-3,8,12-triazatricyclo[7.4.0.0^2,^7]trideca-1(13),2(7),3,5,9,11-hexaene], the IC50 is under 1 nM. As for `[2H]C([2H])([2H])c1nnn(C)c1-c1cnc2c3cnc(Cl)cc3n(C(c3ncccc3F)C3CCOCC3)c2c1` (single isomer, unassigned) [Example 321], the IC50 was under 10 nM. The same measure, in the same setting: the value for `Cc1nnn(C)c1-c1cnc2c3c(S(C)(=O)=O)nccc3n([C@H](c3ccccc3)C3CCOCC3)c2c1` [Example 33, 5-(Dimethyl-1H-1,2,3-triazol-5-yl)-13-methanesulfonyl-8-[(S)-oxan-4-yl(phenyl)methyl]-3,8,12-triazatricyclo[7.4.0.0^2,^7]trideca-1(13),2(7),3,5,9,11-hexaene] was under 1 nM. In the case of `[2H]C([2H])([2H])c1nnn(C)c1-c1cnc2c3c(OC)ncc(S(C)(=O)=O)c3n([C@@H](c3ccccc3)C3CCC(F)(F)CC3)c2c1` [Example 82, 8-[(R)-(4,4-Difluorocyclohexyl)(phenyl)methyl]-10-methanesulfonyl-13-methoxy-5-[4-(^2H3)methyl-1-methyl-1H-1,2,3-triazol-5-yl]-3,8,12-triazatricyclo[7.4.0.0^2,^7]trideca-1(13),2(7),3,5,9,11-hexaene], the IC50 was under 1500 nM. The same measure, in the same setting: the same measure for `COc1ncc(S(C)(=O)=O)c2c1c1ncc(-c3c(C)nnn3C)cc1n2[C@H](c1ccc(F)cc1)C1CCOCC1` [Example 52, 5-(Dimethyl-1H-1,2,3-triazol-5-yl)-8-[(S)-(4-fluorophenyl)(oxan-4-yl)methyl]-10-methanesulfonyl-13-methoxy-3,8,12-triazatricyclo[7.4.0.0^2,^7]trideca-1(13),2(7),3,5,9,11-hexaene]: under 1 nM; for `[2H]C([2H])([2H])C(=O)c1cc2c(cn1)c1ncc(-c3c(C)noc3C)cc1n2[C@H](c1ccc(F)cc1)C1CCOCC1` [Example 223, 1-[5-(Dimethyl-1,2-oxazol-4-yl)-8-[(S)-(4-fluorophenyl)(oxan-4-yl)methyl]-3,8,12-triazatricyclo[7.4.0.0^2,^7]trideca-1(13),2(7),3,5,9,11-hexaen-11-yl](^2H3)ethan-1-one]: under 10 nM; for `[2H]C([2H])([2H])c1nnn(C)c1-c1cnc2c3ccc(Cl)nc3n(C(c3ccccc3)C3CCC(F)(F)CC3)c2c1` (stereo not drawn) [Example 259, 11-Chloro-8-[(4,4-difluorocyclohexyl)(phenyl)methyl]-5-[4-(^2H3)methyl-1-methyl-1H-1,2,3-triazol-5-yl]-3,8,10-triazatricyclo[7.4.0.0^2,^7]trideca-1(13),2(7),3,5,9,11-hexaene]: under 1500 nM. Take `COc1ncc(S(C)(=O)=O)c2c1c1ncc(-c3c(C)noc3C)cc1n2C(c1ccccc1)C1CCC(F)(F)CC1` (single isomer, unassigned) [Example 89, 8-[(4,4-Difluorocyclohexyl)(phenyl)methyl]-5-(dimethyl-1,2-oxazol-4-yl)-10-methanesulfonyl-13-methoxy-3,8,12-triazatricyclo[7.4.0.0^2,^7]trideca-1(13),2(7),3,5,9,11-hexaene]: the IC50 was under 1500 nM.

As a reminder, the IC50 is the midpoint of a concentration-inhibition curve.

The values are drawn from patent US9725449B2, “Tricyclic compounds as anticancer agents” (BRISTOL-MYERS SQUIBB COMPANY, priority 2015, dated 2017).
